What was measured:
[1] = E2 release from hydrogel discs, E2 pellets and E2 powder into incubation medium (ELISA); type: physicochemical; conditions: 50 mL incubation medium, 37° C., 6 rpm
Excerpt: (§1) Low standards were removed from the analysis.

[2] = Release assay on E2 microspheres (same manner as discs); type: physicochemical; conditions: day 3
Description: Release assays on the E2 microspheres were conducted in the same manner as described above for the discs.
as §1

[3] = cited from earlier work

Structure (SMILES) | E2 released into incubation media (concentration) ([1]; day 1 / 24 hours) | E2 released into incubation media (concentration) ([1]; day 2 / 48 hours) | E2 released into incubation media (accumulated concentration) ([1]; day 3 / 72 hours) | E2 release level [2] | solubility factor in water compared to E2 [3]
C[C@]12CC[C@@H]3c4ccc(O)cc4CC[C@H]3[C@@H]1CC[C@@H]2O [E2 powder, Beta-estradiol] | about 1.85 mg/L | reached the saturation point of the incubation media | maintained the saturation point concentration | approximates the saturation level of E2 in the incubation medium | –
C[C@]12CC[C@H]3[C@@H](CCC4=CC(=O)CC[C@@]43C)[C@@H]1CC[C@@H]2O [T, Testosterone] | – | – | – | – | much higher

— patent US12714677B2, “Dual chamber syringe for administering a hormone encapsulated by a hydrogel” (VITALTE LIFESCIENCES INC., priority 2024, dated 2026)
